Source: patent US7163946B2 (Ligand Pharmaceuticals Incorporated, priority 2002, dated 2007)

Legend:
Assay type in all cases: cell-based
hPR [1] = target: T1, hPR (Homo sapiens, UniProt P06401); assay: hPR cotransfection assay in CV-1 cells, antagonist mode; details: for Emax: CV-1, CV-1 cells, maximal inhibition of reference agonist at EC50 concentration, read-out: hPR Antagonist CV-1 Cells Eff. (%); for IC50: CV-1 cells
T1 sequence (P06401 1-933): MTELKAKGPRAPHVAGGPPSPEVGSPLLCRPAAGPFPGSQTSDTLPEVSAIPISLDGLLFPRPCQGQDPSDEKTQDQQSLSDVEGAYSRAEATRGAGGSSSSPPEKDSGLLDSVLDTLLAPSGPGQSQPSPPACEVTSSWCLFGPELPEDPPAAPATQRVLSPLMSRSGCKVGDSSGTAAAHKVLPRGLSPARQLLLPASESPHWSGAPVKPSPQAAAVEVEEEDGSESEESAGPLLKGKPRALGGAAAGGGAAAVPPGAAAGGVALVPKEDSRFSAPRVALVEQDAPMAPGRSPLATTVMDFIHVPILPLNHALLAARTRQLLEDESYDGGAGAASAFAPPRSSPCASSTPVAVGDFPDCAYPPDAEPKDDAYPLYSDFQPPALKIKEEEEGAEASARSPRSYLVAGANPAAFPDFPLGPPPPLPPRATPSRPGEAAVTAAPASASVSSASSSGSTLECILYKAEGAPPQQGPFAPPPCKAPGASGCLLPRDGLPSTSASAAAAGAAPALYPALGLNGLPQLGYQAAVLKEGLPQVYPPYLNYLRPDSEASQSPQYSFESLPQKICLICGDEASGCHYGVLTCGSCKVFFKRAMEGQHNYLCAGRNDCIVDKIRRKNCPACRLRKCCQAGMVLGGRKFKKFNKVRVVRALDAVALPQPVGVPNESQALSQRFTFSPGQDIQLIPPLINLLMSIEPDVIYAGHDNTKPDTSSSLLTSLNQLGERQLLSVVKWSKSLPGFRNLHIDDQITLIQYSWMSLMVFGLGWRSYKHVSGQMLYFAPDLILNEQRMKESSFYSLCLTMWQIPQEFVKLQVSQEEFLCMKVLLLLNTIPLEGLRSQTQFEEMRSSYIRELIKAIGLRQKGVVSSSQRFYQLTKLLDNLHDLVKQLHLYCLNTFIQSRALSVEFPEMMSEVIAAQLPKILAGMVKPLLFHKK

hPR [2] = target: T2, hPR (Homo sapiens, UniProt P06401); assay: T47D alkaline phosphatase assay, agonist mode; details: T47D human breast cancer cells; for Emax: T47D, read-out: hPR Agonist T47D cells Eff. (%)
T2 sequence (P06401 679-933 limits assumed): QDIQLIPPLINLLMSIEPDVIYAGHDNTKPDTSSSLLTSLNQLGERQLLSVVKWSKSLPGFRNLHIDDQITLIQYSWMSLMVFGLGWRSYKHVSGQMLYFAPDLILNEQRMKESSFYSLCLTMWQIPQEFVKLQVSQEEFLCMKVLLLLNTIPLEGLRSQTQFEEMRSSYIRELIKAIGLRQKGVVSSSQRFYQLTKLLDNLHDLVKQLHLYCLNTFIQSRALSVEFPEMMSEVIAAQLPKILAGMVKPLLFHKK

hGR = target: T3, hGR (Homo sapiens, UniProt P04150); assay: hGR cotransfection assay (potency ratio to hPR); details: receptor-selectivity potency ratio, cotransfection assays
T3 sequence (P04150 1-777): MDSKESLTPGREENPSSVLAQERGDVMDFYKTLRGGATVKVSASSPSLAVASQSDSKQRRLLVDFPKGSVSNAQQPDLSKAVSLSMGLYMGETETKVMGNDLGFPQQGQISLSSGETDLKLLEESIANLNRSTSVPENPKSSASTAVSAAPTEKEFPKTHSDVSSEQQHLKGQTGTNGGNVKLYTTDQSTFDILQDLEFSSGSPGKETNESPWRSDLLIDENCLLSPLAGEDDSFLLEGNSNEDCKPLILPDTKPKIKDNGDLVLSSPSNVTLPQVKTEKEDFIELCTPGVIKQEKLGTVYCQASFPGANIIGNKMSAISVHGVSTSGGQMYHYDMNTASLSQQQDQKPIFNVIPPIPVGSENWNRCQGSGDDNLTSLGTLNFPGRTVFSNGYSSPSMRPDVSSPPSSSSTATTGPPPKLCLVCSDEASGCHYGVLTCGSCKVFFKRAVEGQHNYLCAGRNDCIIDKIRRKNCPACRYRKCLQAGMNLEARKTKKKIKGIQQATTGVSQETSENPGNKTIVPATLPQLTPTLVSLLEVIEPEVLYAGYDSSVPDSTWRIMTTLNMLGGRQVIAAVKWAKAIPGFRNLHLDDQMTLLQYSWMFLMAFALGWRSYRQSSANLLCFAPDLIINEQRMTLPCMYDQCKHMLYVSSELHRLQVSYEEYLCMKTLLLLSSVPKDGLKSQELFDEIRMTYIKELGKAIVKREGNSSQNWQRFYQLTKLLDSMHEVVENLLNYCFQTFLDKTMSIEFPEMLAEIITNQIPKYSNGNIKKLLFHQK

[3] = target: T4, human estrogen receptor (hER) (Homo sapiens, UniProt P03372); assay: hER cotransfection assay (potency ratio to hPR); details: receptor-selectivity potency ratio, cotransfection assays
T4 sequence (P03372 1-595): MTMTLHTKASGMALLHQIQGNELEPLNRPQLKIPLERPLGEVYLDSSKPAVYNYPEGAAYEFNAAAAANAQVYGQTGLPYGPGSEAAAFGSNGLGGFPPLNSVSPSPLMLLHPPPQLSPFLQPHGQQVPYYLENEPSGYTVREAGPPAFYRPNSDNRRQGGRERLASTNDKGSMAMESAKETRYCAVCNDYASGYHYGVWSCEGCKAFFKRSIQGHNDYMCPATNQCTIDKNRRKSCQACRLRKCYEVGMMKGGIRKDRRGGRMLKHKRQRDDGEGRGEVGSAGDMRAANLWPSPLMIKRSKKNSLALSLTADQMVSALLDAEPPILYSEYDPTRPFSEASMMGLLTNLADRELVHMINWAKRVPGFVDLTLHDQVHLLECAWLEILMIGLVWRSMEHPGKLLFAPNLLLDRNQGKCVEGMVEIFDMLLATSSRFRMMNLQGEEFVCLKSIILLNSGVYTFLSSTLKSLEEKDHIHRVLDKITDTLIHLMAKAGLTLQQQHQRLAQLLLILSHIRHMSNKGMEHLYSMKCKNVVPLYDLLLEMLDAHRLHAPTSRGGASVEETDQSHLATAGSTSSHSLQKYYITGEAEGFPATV

| Emax (hPR [1]) [%] | IC50 (hPR [1]) [nM] | EC50 (hPR [2]) [nM] | Emax (hPR [2]) [%] | hGR EC50 or IC50/hPR EC50 (hGR) | hER EC50 or IC50/hPR EC50 [3] | Structure (SMILES) |
| --- | --- | --- | --- | --- | --- | --- |
| < 20 | > 10000 | 130 | 50 | 54 | >1000 | CC1=CC(C)(C)Nc2ccc3c(c21)C(c1ccc(Cl)c(C)c1)Oc1c(F)cc(F)cc1-3 (racemic) [Compound 37, (±)-7,9-difluoro-5-(4-chloro-3-methylphenyl)-1,2-dihydro-2,2,4-trimethyl-5H-chromeno[3,4-f]quinoline] |
| < 20 | > 10000 | 19 | 56 | 30 | >1000 | CC1=CC(C)(C)Nc2ccc3c(c21)/C(=C/c1cccc(F)c1)Oc1c(F)cc(F)cc1-3 [Compound 15, 7,9-difluoro-5(Z)-(3-fluorobenzylidene)-1,2-dihydro-2,2,4-trimethyl-5H-chromeno[3,4-f]quinoline] |
| < 20 | > 10000 | 14 | 66 | 59 | >1000 | CC1=CC(C)(C)Nc2ccc3c(c21)/C(=C/c1cccs1)Oc1c(F)cc(F)cc1-3 [Compound 31, 7,9-difluoro-5(Z)-(2-thienylmethylidene)-1,2-dihydro-2,2,4-trimethyl-5H-chromeno[3,4-f]quinoline] |
